Results on 15 compounds are retold here after paper PMC10999085, “Synthesis, anticancer evaluation, molecular docking and ADME study of novel pyrido[4ʹ,3ʹ:3,4]pyrazolo[1,5-a]pyrimidines as potential tropomyosin receptor kinase A (TrKA) inhibitors” (BMC Chemistry, 2024).

SMILES strings stand for the structures.

One series has as its system MCF7 cell line. The series is described as follows: MTT assay, MCF7 cell line. Type of series: cell-based, human. To be noted: 24 hr treatment, in % (unit assumed); for Cytotoxicity at 5 µg/l: MCF7, 5 µg/l; for Cytotoxicity at 10 µg/l: MCF7, 10 µg/l; for Cytotoxicity at 20 µg/l: MCF7, 20 µg/l. Here is the method:
(§1) Determination of the inhibitory effects of compounds on cell growth was performed through the MTT assay. This colorimetric assay is based on the conversion of the yellow tetrazolium bromide (MTT) to a purple formazan derivative by mitochondrial succinate dehydrogenase in viable cells. The protocol was discussed in details in Additional file 1.
(§2) Compounds 1, 4a,b, 7a–c, 7k, l, 9a–c, 14a, 15b, 16a–c were selected to be investigated against three human cancer cell lines MCF7, HepG2 and HCT116 cell lines using MTT assay using doxorubicin as the standard drug. Each point is the mean ± SD (standard deviation) of three independent experiments performed in triplicate, using the prism software program (integrated Graphpad software, version 3).
(§3) Cell lines were used to measure the cell growth effects of the compounds using the MTT assay. This colorimetric assay is depend on the conversion of the yellow tetrazolium bromide (MTT) to a purple formazan derivative by mitochondrial succinate dehydrogenase in living cells. Cell lines were cultured in RPMI-1640 medium supplemented with 10% fetal bovine serum. The antibiotics added were 100 units/ml penicillin and 100 µg/ml streptomycin at 37 °C in a 5% CO2 incubator. Cell lines were seeded in a 96-well plates at a density of 1.0x10^4 cells/well and cultured at 37 °C for 48 h under 5% CO2. After incubation, the cells were treated with different concentrations of compounds and incubated for 24 hr. After 24 hr of drug treatment, 20 µl of MTT solution at 5 mg/ml was added to each well and incubated for 4 hr. 100 µl of dimethyl sulfoxide (DMSO) was added into each well to dissolve the purple formazan formed. The colorimetric assay was measured and recorded at absorbance of 570 nm using a plate reader (EXL 800, USA). Relative cell viability (%) was calculated as (A570 of treated sample/A570 of untreated sample) x 100 [36, 37].
A general note: Formazan colour is commonly taken as a measure of viable cells.

In another series the test system is HepG2 cell line. The series is described as follows: MTT assay, HepG2 cell line. In kind it is cell-based, human. As to conditions: MTT, 24 hr treatment, in % (unit assumed); for Cytotoxicity at 5 µg/l: HepG2, 5 µg/l; for Cytotoxicity at 10 µg/l: HepG2, 10 µg/l; for Cytotoxicity at 20 µg/l: HepG2, 20 µg/l. Here is the method:
as §1, §2, §3

The test system of the next series is HCT-116 cell line. Nature of the series: MTT assay, HCT-116 cell line. To be noted: MTT, 24 hr treatment, in % (unit assumed); for Cytotoxicity at 5 µg/l: HCT116, 5 µg/l; for Cytotoxicity at 10 µg/l: HCT116, 10 µg/l; for Cytotoxicity at 20 µg/l: HCT116, 20 µg/l. In kind it is cell-based, human. As for the experimental part: as §1, §2, §3

Usually melting point stands for the temperature, or range, at which the solid turns liquid.

Compound `Cc1cc(C)n2nc3c(c2n1)C(=O)NC(=O)C3=Cc1ccccc1` [Compound 7a, 7-Benzylidene-2,4-dimethylpyrido[4ʹ,3ʹ:3,4]pyrazolo[1,5-a]pyrimidine-8,10(7H,9H)-dione] returned a melting point of 240 °C. In the series with MCF7 cell line, the “Cytotoxicity at 5 µg/l” value turned out to be 30.13, the “Cytotoxicity at 10 µg/l” value worked out at 45.66 and the “Cytotoxicity at 20 µg/l” value is given as 66.12. Moreover, in the series on HepG2 cell line, the “Cytotoxicity at 5 µg/l” value was found to be 38.17, the “Cytotoxicity at 10 µg/l” value was 42.56 and the “Cytotoxicity at 20 µg/l” value came out at 76.04. In addition, in the series with HCT-116 cell line, the “Cytotoxicity at 5 µg/l” value was determined as 50.82, the “Cytotoxicity at 10 µg/l” value is recorded as 84.52 and the “Cytotoxicity at 20 µg/l” value is on record as 91.78.
`Cc1ccc(NN=C2C(=O)NC(=O)c3c2nn2c(C)cc(C)nc32)cc1` [Compound 9b, 2,4-Dimethyl-7-(2-(p-tolyl)hydrazono)pyrido[4ʹ,3ʹ:3,4]pyrazolo[1,5-a]pyrimidine-8,10(7H,9H)-dione] yielded a melting point of 285 °C. In addition, in the series on MCF7 cell line, the “Cytotoxicity at 5 µg/l” value was 33.82, the “Cytotoxicity at 10 µg/l” value worked out at 51.19 and the “Cytotoxicity at 20 µg/l” value is given as 72.13. For the same compound, in the series with HepG2 cell line, the “Cytotoxicity at 5 µg/l” value is on record as 8.46, the “Cytotoxicity at 10 µg/l” value came out at 33.81 and the “Cytotoxicity at 20 µg/l” value was determined as 73.11. For the same compound, in the series on HCT-116 cell line, the “Cytotoxicity at 5 µg/l” value was found to be 22.09, the “Cytotoxicity at 10 µg/l” value is 40.50 and the “Cytotoxicity at 20 µg/l” value is reported as 59.80.
The compound `Cc1ccc(NN=C2C(=O)NC(=O)c3c2nn2c(O)cc(C)nc32)cc1` [Compound 16b, 4-Hydroxy-2-methyl-7-(2-(p-tolyl)hydrazono)pyrido[4ʹ,3ʹ:3,4]pyrazolo[1,5-a]pyrimidine-8,10(7H,9H)-dione] yielded a melting point of 330 °C. For the same compound, in the series with MCF7 cell line, the “Cytotoxicity at 5 µg/l” value is on record as 54.13, the “Cytotoxicity at 10 µg/l” value stood at 55.27 and the “Cytotoxicity at 20 µg/l” value was 80.56. Besides, in the series with HepG2 cell line, the “Cytotoxicity at 5 µg/l” value is recorded as 18.01, the “Cytotoxicity at 10 µg/l” value amounted to 42.54 and the “Cytotoxicity at 20 µg/l” value stood at 50.18. In addition, in the series on HCT-116 cell line, the “Cytotoxicity at 5 µg/l” value is recorded as 23.18, the “Cytotoxicity at 10 µg/l” value amounted to 52.73 and the “Cytotoxicity at 20 µg/l” value is recorded as 85.28.
`O=C1Cc2nn3c(-c4ccccc4)cc(-c4ccccc4)nc3c2C(=O)N1` [Compound 4b, 2,4-Diphenylpyrido[4ʹ,3ʹ:3,4]pyrazolo[1,5-a]pyrimidine-8,10(7H,9H)-dione] came in with a melting point of 300 °C. Besides, in the series with MCF7 cell line, the “Cytotoxicity at 5 µg/l” value was 22.19, the “Cytotoxicity at 10 µg/l” value was 55.85 and the “Cytotoxicity at 20 µg/l” value turned out to be 70.37. In the series on HepG2 cell line, the “Cytotoxicity at 5 µg/l” value was determined as 38.14, the “Cytotoxicity at 10 µg/l” value is listed as 43.81 and the “Cytotoxicity at 20 µg/l” value worked out at 76.43. Also, in the series on HCT-116 cell line, the “Cytotoxicity at 5 µg/l” value came out at 7.31, the “Cytotoxicity at 10 µg/l” value is reported as 21.33 and the “Cytotoxicity at 20 µg/l” value is 66.23.
On to `Cc1cc(O)n2nc3c(c2n1)C(=O)NC(=O)C3` [Compound 14a, 4-Hydroxy-2-methylpyrido[4ʹ,3ʹ:3,4]pyrazolo[1,5-a]pyrimidine-8,10(7H,9H)-dione], for which the melting point was > 360 °C. Moreover, in the series with MCF7 cell line, the “Cytotoxicity at 5 µg/l” value turned out to be 25.14, the “Cytotoxicity at 10 µg/l” value amounted to 48.62 and the “Cytotoxicity at 20 µg/l” value is recorded as 77.19. In the series on HepG2 cell line, the “Cytotoxicity at 5 µg/l” value is recorded as 11.39, the “Cytotoxicity at 10 µg/l” value is 40.75 and the “Cytotoxicity at 20 µg/l” value turned out to be 83.75. Also, in the series with HCT-116 cell line, the “Cytotoxicity at 5 µg/l” value worked out at 28.84, the “Cytotoxicity at 10 µg/l” value came out at 55.79 and the “Cytotoxicity at 20 µg/l” value amounted to 58.72.
Turning to `O=C1NC(=O)c2c(nn3c(-c4ccccc4)cc(-c4ccccc4)nc23)C1=Cc1ccccc1` [Compound 7k, 7-Benzylidene-2,4-diphenylpyrido[4ʹ,3ʹ:3,4]pyrazolo[1,5-a]pyrimidine-8,10(7H,9H)-dione], the melting point was 275 °C. Further, in the series on MCF7 cell line, the “Cytotoxicity at 5 µg/l” value stood at 36.19, the “Cytotoxicity at 10 µg/l” value was found to be 55.16 and the “Cytotoxicity at 20 µg/l” value was found to be 71.12. In addition, in the series with HepG2 cell line, the “Cytotoxicity at 5 µg/l” value was 41.84, the “Cytotoxicity at 10 µg/l” value turned out to be 88.59 and the “Cytotoxicity at 20 µg/l” value was 90.19. Moreover, in the series with HCT-116 cell line, the “Cytotoxicity at 5 µg/l” value was determined as 39.48, the “Cytotoxicity at 10 µg/l” value was 46.55 and the “Cytotoxicity at 20 µg/l” value is 62.92.
Compound `Cc1cc(C)n2nc3c(c2n1)C(=O)NC(=O)C3` [Compound 4a, 2,4-Dimethylpyrido[4ʹ,3ʹ:3,4]pyrazolo[1,5-a]pyrimidine-8,10(7H,9H)-diones] showed a melting point of 330 °C. Further, in the series with MCF7 cell line, the “Cytotoxicity at 5 µg/l” value was determined as 35.61, the “Cytotoxicity at 10 µg/l” value is 74.99 and the “Cytotoxicity at 20 µg/l” value is given as 84.71. Also, in the series on HepG2 cell line, the “Cytotoxicity at 5 µg/l” value came to 15.91, the “Cytotoxicity at 10 µg/l” value amounted to 60.95 and the “Cytotoxicity at 20 µg/l” value was determined as 82.16. In the series with HCT-116 cell line, the “Cytotoxicity at 5 µg/l” value came to 56.23, the “Cytotoxicity at 10 µg/l” value came to 71.78 and the “Cytotoxicity at 20 µg/l” value is reported as 84.77.
`O=C1NC(=O)c2c(nn3c(-c4ccccc4)cc(-c4ccccc4)nc23)C1=Cc1ccncc1` [Compound 7t, 2,4-Diphenyl-7-(pyridin-4-ylmethylene)pyrido[4ʹ,3ʹ:3,4]pyrazolo[1,5-a]pyrimidine-8,10(7H,9H)-dione] gave a melting point of 340 °C.
The same measure, in the same setting: the same measure for `Cc1cc(O)n2nc3c(c2n1)C(=O)NC(=O)C3=Cc1ccccc1` [Compound 15a, 7-Benzylidene-4-hydroxy-2-methylpyrido[4ʹ,3ʹ:3,4]pyrazolo[1,5-a]pyrimidine-8,10(7H,9H)-dione]: 305 °C; for `COc1cc(C=C2C(=O)NC(=O)c3c2nn2c(C)cc(C)nc32)cc(OC)c1OC` [Compound 7f, 2,4-Dimethyl-7-(3,4,5-trimethoxybenzylidene)pyrido[4ʹ,3ʹ:3,4]pyrazolo[1,5-a]pyrimidine-8,10(7H,9H)-dione]: 240 °C; for `Cc1cc(C)n2nc3c(c2n1)C(=O)NC(=O)C3=Cc1ccncc1` [Compound 7j, 2,4-Dimethyl-7-(pyridin-4-ylmethylene)pyrido[4ʹ,3ʹ:3,4]pyrazolo[1,5-a]pyrimidine-8,10(7H,9H)-dione]: 270 °C.
Still for that read-out and setting: the same measure for `COc1cc(C=C2C(=O)NC(=O)c3c2nn2c(-c4ccccc4)cc(-c4ccccc4)nc32)cc(OC)c1OC` [Compound 7p, 2,4-Diphenyl-7-(3,4,5-trimethoxybenzylidene)pyrido[4ʹ,3ʹ:3,4]pyrazolo[1,5-a]-pyrimidine-8,10(7H,9H)-dione]: 315 °C.
In turn, `O=C1NC(=O)c2c(nn3c(-c4ccccc4)cc(-c4ccccc4)nc23)C1=Cc1ccco1` [Compound 7r, 7-(Furan-2-ylmethylene)-2,4-diphenylpyrido[4ʹ,3ʹ:3,4]pyrazolo[1,5-a]pyrimidine-8,10(7H,9H)-dione] gave a melting point of 335 °C.
On the same count and under the same terms, the same measure for `COc1ccc(OC)c(C=C2C(=O)NC(=O)c3c2nn2c(-c4ccccc4)cc(-c4ccccc4)nc32)c1` [Compound 7o, 7-(2,5-Dimethoxybenzylidene)-2,4-diphenylpyrido[4ʹ,3ʹ:3,4]pyrazolo[1,5-a]pyrimidine-8,10(7H,9H)-dione]: 275 °C; for `O=C1NC(=O)c2c(nn3c(-c4ccccc4)cc(-c4ccccc4)nc23)C1=NNc1ccccc1` [Compound 11a, 2,4-Diphenyl-7-(2-phenylhydrazono)pyrido[4ʹ,3ʹ:3,4]pyrazolo[1,5-a]pyrimidine-8,10(7H,9H)-dione]: 315 °C.
